The source of these data is patent US10047098B2, “C5-C6-oxacyclic fused iminopyrimidinone compounds as bace inhibitors, compositions, and their use” (Merck Sharp & Dohme Corp., priority 2014, dated 2018).

What is called Ki is a measure of affinity in units of concentration, obtained from inhibition or displacement.

The target in assay [1] is Recombinant human soluble BACE1 catalytic domain (Homo sapiens (Human), UniProt P56817). In words: BACE1 HTRF FRET Assay. In kind it is biochemical. Particulars: Ki calculated from IC50 using the Cheng-Prusoff equation; QSY7-APPswe-Eu substrate, pH 5.0; read-out: BACE-1 Ki. An outline of the steps: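 Purified BACE1 catalytic domain (3 nM as added) is preincubated with inhibitor for 30 min at 30 °C in 20 mM Na-acetate pH 5.0, 10% glycerol, 0.1% Brij-35, 7.5% DMSO. QSY7-APP^swe-Eu substrate (200 nM final) is then cleaved for 1.5 h at 30 °C and read as time-resolved 620 nm fluorescence. IC50s come from nonlinear regression, and Ki from Cheng-Prusoff using substrate Km 8 μM.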
Sequence of Recombinant human soluble BACE1 catalytic domain (P56817 75-416): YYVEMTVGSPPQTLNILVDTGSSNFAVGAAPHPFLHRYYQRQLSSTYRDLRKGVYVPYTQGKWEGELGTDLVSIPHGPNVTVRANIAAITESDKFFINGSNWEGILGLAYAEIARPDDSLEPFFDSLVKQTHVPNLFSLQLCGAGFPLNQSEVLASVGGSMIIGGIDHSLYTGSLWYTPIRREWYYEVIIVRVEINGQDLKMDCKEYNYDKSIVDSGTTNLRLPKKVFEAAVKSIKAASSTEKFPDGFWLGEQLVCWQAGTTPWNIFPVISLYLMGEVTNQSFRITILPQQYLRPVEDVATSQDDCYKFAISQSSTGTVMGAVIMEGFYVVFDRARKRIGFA

Assay [2] concerns the target purified human autoBACE-2 (Homo sapiens (Human), UniProt Q9Y5Z0). Put plainly: BACE-2 Assay (BACE-HTRF assay). It counts as biochemical. To be noted: Ki calculated from IC50 using the Cheng-Prusoff equation; QSY7-EISEVNLDAEFC-Eu-amide substrate, pH 5.0. The method, boiled down:
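Endpoint proteolysis of a QSY7/europium FRET peptide by purified human autoBACE-2, 5% DMSO final, read by time-resolved fluorescence at 620 nm after 320 nm excitation.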

Sequence of purified human autoBACE-2 (Q9Y5Z0 63-473 limits assumed): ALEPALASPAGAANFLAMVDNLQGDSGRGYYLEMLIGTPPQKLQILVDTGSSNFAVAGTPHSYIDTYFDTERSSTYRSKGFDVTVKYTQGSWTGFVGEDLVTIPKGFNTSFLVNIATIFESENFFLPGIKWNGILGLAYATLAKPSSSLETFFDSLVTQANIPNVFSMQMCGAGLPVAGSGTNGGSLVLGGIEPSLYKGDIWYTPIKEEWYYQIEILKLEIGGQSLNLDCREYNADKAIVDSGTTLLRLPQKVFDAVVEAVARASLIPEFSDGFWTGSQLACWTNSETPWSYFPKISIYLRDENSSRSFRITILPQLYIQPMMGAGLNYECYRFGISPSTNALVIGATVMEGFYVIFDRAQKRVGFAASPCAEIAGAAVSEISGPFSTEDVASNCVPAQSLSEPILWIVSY

Take `CN1C(=N)N[C@@]2(c3cc(OCC45CC(C4)C5)ccc3F)CO[C@@H](C3CC3)C[C@H]2C1=O` [Example 54, (4aR,6R,8aS)-8a-(5-(bicyclo[1.1.1]pentan-1-ylmethoxy)-2-fluorophenyl)-6-cyclopropyl-2-imino-3-methylhexahydro-1H-pyrano[3,4-d]pyrimidin-4(4aH)-one]: the Ki in assay [1] is 21 nM; in assay [2], 4 nM.

Regarding `CN1C(=N)N[C@@]2(c3cc(OCC(F)(F)F)ccc3F)CO[C@@H](C3CC3)C[C@H]2C1=O` [Example 55, (4aR,6R,8aS)-6-cyclopropyl-8a-(2-fluoro-5-(2,2,2-trifluoroethoxy)phenyl)-2-imino-3-methylhexahydro-1H-pyrano[3,4-d]pyrimidin-4(4aH)-one], the figures for the Ki in assay [1] and in assay [2] were 636 nM and 4610 nM, respectively.

Take `CN1C(=N)N[C@@]2(c3cc(Oc4cc(-n5cccn5)ccn4)ccc3F)CO[C@@H](C3CC3)C[C@H]2C1=O` [Example 56, (4aR,6R,8aS)-8a-(5-((4-(1H-pyrazol-1-yl)pyridin-2-yl)oxy)-2-fluorophenyl)-6-cyclopropyl-2-imino-3-methylhexahydro-1H-pyrano[3,4-d]pyrimidin-4(4aH)-one]: the Ki in assay [1] was 9 nM; in assay [2] it was 51 nM.

As for `CN1C(=N)N[C@@]2(c3cc(OC4CC(F)(F)C4)ccc3F)CO[C@@H](C3CC3)C[C@H]2C1=O` [Example 57, (4aR,6R,8aS)-6-cyclopropyl-8a-(5-(3,3-difluorocyclobutoxy)-2-fluorophenyl)-2-imino-3-methylhexahydro-1H-pyrano[3,4-d]pyrimidin-4(4aH)-one], the Ki in assay [1] was 43 nM; in assay [2], 41 nM.

Consider `CN1C(=N)N[C@@]2(c3cc(Oc4ncncc4F)ccc3F)CO[C@@H](C3CC3)CC2C1=O` (stereo partly drawn) [Example 58, (6R,8aS)-6-cyclopropyl-8a-(2-fluoro-5-((5-fluoropyrimidin-4-yl)oxy)phenyl)-2-imino-3-methylhexahydro-IH-pyrano[3,4-d]pyrimidin-4(4aH)-one], for which the Ki is 13 nM in assay [1] and 35 nM in assay [2].

In the case of `COC[C@H]1C[C@H]2C(=O)N(C)C(=N)N[C@@]2(c2cc(Oc3cc(F)cnc3F)c(F)cc2F)CO1` [Example 59, (4aR,6R,8aS)-8a-(5-((2,5-difluoropyridin-3-yl)oxy)-2,4-difluorophenyl)-2-imino-6-(methoxymethyl)-3-methylhexahydro-1H-pyrano[3,4-d]pyrimidin-4(4aH)-one], the values for the Ki in assay [1] and in assay [2] were 3 nM and 20 nM, respectively.

For `Cc1cnc(Oc2ccc(F)c([C@]34CO[C@@H](C5CC5)C[C@H]3C(=O)N(C)C(=N)N4)c2)c(F)c1` [Example 60, (4aR,6R,8aS)-6-cyclopropyl-8a-(2-fluoro-5-((3-fluoro-5-methylpyridin-2-yl)oxy)phenyl)-2-imino-3-methylhexahydro-1H-pyrano[3,4-d]pyrimidin-4(4aH)-one], the Ki in assay [1] was 121 nM; in assay [2], 125 nM.

Turning to `C[C@H]1C[C@H]2C(=O)N(C)C(=N)N[C@@]2(c2cc(O)ccc2F)CO1` [Example 64, (4aR,6S,8aS)-8a-(2-fluoro-5-hydroxyphenyl)-2-imino-3,6-dimethylhexahydro-1H-pyrano[3,4-d]pyrimidin-4(4aH)-one], the Ki is 358 nM in assay [1] and 82.7 nM in assay [2].

Take `COc1cncc(Oc2ccc(F)c([C@]34CO[C@@H](C)C[C@H]3C(=O)N(C)C(=N)N4)c2)n1` [Example 65, (4aR,6S,8aS)-8a-(2-fluoro-5-((6-methoxypyrazin-2-yl)oxy)phenyl)-2-imino-3,6-dimethylhexahydro-1H-pyrano[3,4-d]pyrimidin-4(4aH)-one]: the figures for the Ki in assay [1] and in assay [2] were 6.6 nM and 15.8 nM, respectively.

As to `C[C@H]1C[C@H]2C(=O)N(C)C(=N)N[C@@]2(c2cc(Oc3cnccn3)ccc2F)CO1` [Example 66, (4aR,6S,8aS)-8a-(2-fluoro-5-(pyrazin-2-yloxy)phenyl)-2-imino-3,6-dimethylhexahydro-1H-pyrano[3,4-d]pyrimidin-4(4aH)-one], the Ki is 11.8 nM in assay [1] and 30.3 nM in assay [2].

`Cc1cncc(Oc2ccc(F)c([C@]34CO[C@@H](C)C[C@H]3C(=O)N(C)C(=N)N4)c2)n1` [Example 67, (4aR,6S,8aS)-8a-(2-fluoro-5-((6-methylpyrazin-2-yl)oxy)phenyl)-2-imino-3,6-dimethylhexahydro-1H-pyrano[3,4-d]pyrimidin-4(4aH)-one]: the results for the inhibition constant Ki in assay [1] and in assay [2] were 13.3 nM and 25.2 nM, respectively.

Turning to `C[C@H]1C[C@H]2C(=O)N(C)C(=N)N[C@@]2(c2cc(Oc3ccc(F)cn3)ccc2F)CO1` [Example 68, (4aR,6S,8aS)-8a-(2-fluoro-5-((5-fluoropyridin-2-yl)oxy)phenyl)-2-imino-3,6-dimethylhexahydro-1H-pyrano[3,4-d]pyrimidin-4(4aH)-one], the Ki was 157 nM in assay [1] and 71.3 nM in assay [2].

For the compound `C[C@H]1C[C@H]2C(=O)N(C)C(=N)N[C@@]2(c2cc(Oc3ncncc3F)ccc2F)CO1` [Example 69, (4aR,6S,8aS)-8a-(2-fluoro-5-((5-fluoropyrimidin-4-yl)oxy)phenyl)-2-imino-3,6-dimethylhexahydro-1H-pyrano[3,4-d]pyrimidin-4(4aH)-one], the Ki was 11 nM in assay [1] and 6.78 nM in assay [2].

Turning to `Cc1nccnc1Oc1ccc(F)c([C@]23CO[C@@H](C)C[C@H]2C(=O)N(C)C(=N)N3)c1` [Example 70, (4aR,6S,8aS)-8a-(2-fluoro-5-((3-methylpyrazin-2-yl)oxy)phenyl)-2-imino-3,6-dimethylhexahydro-1H-pyrano[3,4-d]pyrimidin-4(4aH)-one], the figures for the Ki in assay [1] and in assay [2] were 402 nM and 235 nM, respectively.

Regarding `COc1ccnc(Oc2ccc(F)c([C@]34CO[C@@H](C)C[C@H]3C(=O)N(C)C(=N)N4)c2)c1` [Example 71, (4aR,6S,8aS)-8a-(2-fluoro-5-((4-methoxypyridin-2-yl)oxy)phenyl)-2-imino-3,6-dimethylhexahydro-1H-pyrano[3,4-d]pyrimidin-4(4aH)-one], the values for the Ki in assay [1] and in assay [2] were 39.9 nM and 15 nM, respectively.

With `C[C@H]1C[C@H]2C(=O)N(C)C(=N)N[C@@]2(c2cc(Oc3ncccc3Cl)ccc2F)CO1` [Example 72, (4aR,6S,8aS)-8a-(5-((3-chloropyridin-2-yl)oxy)-2-fluorophenyl)-2-imino-3,6-dimethylhexahydro-1H-pyrano[3,4-d]pyrimidin-4(4aH)-one], the Ki in assay [1] was 37.6 nM; in assay [2], 9.67 nM.

In the case of `Cc1cccnc1Oc1ccc(F)c([C@]23CO[C@@H](C)C[C@H]2C(=O)N(C)C(=N)N3)c1` [Example 73, (4aR,6S,8aS)-8a-(2-fluoro-5-((3-methylpyridin-2-yl)oxy)phenyl)-2-imino-3,6-dimethylhexahydro-lH-pyrano[3,4-d]pyrimidin-4(4aH)-one], the Ki in assay [1] is 295 nM; in assay [2], 32.3 nM.

For the compound `C[C@H]1C[C@H]2C(=O)N(C)C(=N)N[C@@]2(c2cc(Oc3ccncc3F)ccc2F)CO1` [Example 74, (4aR,6S,8aS)-8a-(2-fluoro-5-((3-fluoropyridin-4-yl)oxy)phenyl)-2-imino-3,6-dimethylhexahydro-1H-pyrano[3,4-d]pyrimidin-4(4aH)-one], the Ki in assay [1] was 44.3 nM; in assay [2] it was 31.5 nM.

Consider `C[C@H]1C[C@H]2C(=O)N(C)C(=N)N[C@@]2(c2cc(Oc3ccccn3)ccc2F)CO1` [Example 76, (4aR,6S,8aS)-8a-(2-fluoro-5-(pyridin-2-yloxy)phenyl)-2-imino-3,6-dimethylhexahydro-1H-pyrano[3,4-d]pyrimidin-4(4aH)-one], for which the inhibition constant Ki in assay [1] was 31.7 nM; in assay [2], 13.4 nM.

Turning to `C[C@H]1C[C@H]2C(=O)N(C)C(=N)N[C@@]2(c2cc(Oc3cc4ccccc4cn3)ccc2F)CO1` [Example 77, (4aR,6S,8aS)-8a-(2-fluoro-5-(isoquinolin-3-yloxy)phenyl)-2-imino-3,6-dimethylhexahydro-1H-pyrano[3,4-d]pyrimidin-4(4aH)-one], the Ki in assay [1] is 1450 nM; in assay [2] it was 242 nM.

Consider `C[C@H]1C[C@H]2C(=O)N(C)C(=N)N[C@@]2(c2cc(Oc3cncc(F)c3)ccc2F)CO1` [Example 78, (4aR,6S,8aS)-8a-(2-fluoro-5-((5-fluoropyridin-3-yl)oxy)phenyl)-2-imino-3,6-dimethylhexahydro-1H-pyrano[3,4-d]pyrimidin-4(4aH)-one], for which the Ki in assay [1] is 20 nM; in assay [2], 32.9 nM.

`C[C@H]1C[C@H]2C(=O)N(C)C(=N)N[C@@]2(c2cc(Oc3ncc(F)cc3F)ccc2F)CO1` [Example 79, (4aR,6S,8aS)-8a-(5-((3,5-difluoropyridin-2-yl)oxy)-2-fluorophenyl)-2-imino-3,6-dimethylhexahydro-1H-pyrano[3,4-d]pyrimidin-4(4aH)-one]: the inhibitory constant (Ki) in assay [1] is 43.5 nM; in assay [2] it was 41.3 nM.

Regarding `C[C@H]1C[C@H]2C(=O)N(C)C(=N)N[C@@]2(c2cc(Oc3cc(F)cnc3F)ccc2F)CO1` [Example 80, (4aR,6S,8aS)-8a-(5-((2,5-difluoropyridin-3-yl)oxy)-2-fluorophenyl)-2-imino-3,6-dimethylhexahydro-1H-pyrano[3,4-d]pyrimidin-4(4aH)-one], the Ki in assay [1] was 8.5 nM; in assay [2] it was 22.3 nM.

Regarding `C[C@H]1C[C@H]2C(=O)N(C)C(=N)N[C@@]2(c2cc(Oc3cccnc3)ccc2F)CO1` [Example 81, (4aR,6S,8aS)-8a-(2-fluoro-5-(pyridin-3-yloxy)phenyl)-2-imino-3,6-dimethylhexahydro-1H-pyrano[3,4-d]pyrimidin-4(4aH)-one], the Ki in assay [1] is 26.8 nM; in assay [2], 20.7 nM.
